The source of these data is paper PMC4251536 (Journal of Natural Products, 2014).

Structures are written as SMILES.

The subject of data set [1] is human lung adenocarcinoma cells. As to conditions: cited from earlier work.
The subject of data set [2] is sodium ion channel in Neuro-2a cells. The settings on record: read-out: IC50, sodium ion channel blocking activity (veratridine-induced sodium influx), natural product; cited from earlier work.
Data set [3] deals with voltage-gated sodium channels (VGSCs). The format is cell-based, mouse. The settings on record: veratridine-stimulated Na+ influx, murine cerebrocortical neurons.

One may read the IC50 as the concentration at which inhibition is half-maximal.

For the compound `C[C@@H]1CCCC(=O)N(C)/C=C/CC[C@@H](C)C(=O)O[C@@H](C(C)(C)C)C1` [compound 1, (−)-palmyrolide A], the “cytotoxicity (in words)” value in data set [1] was “no appreciable cytotoxicity”. Further, the IC50 in data set [2] is 5.2 µM. Further, the “fold more potent than the other analogues tested” value in data set [3] is on record as 3–9 fold. On to `C[C@H]1CCCC(=O)N(C)/C=C/CC[C@H](C)C(=O)O[C@H](C(C)(C)C)C1` [compound 3, (+)-palmyrolide A], for which the “fold more potent than the other analogues tested” value in data set [3] is listed as 3–9 fold. Regarding `C[C@@H]1CCCC(=O)N(C)CCCC[C@@H](C)C(=O)O[C@@H](C(C)(C)C)C1` [compound 5, 17,18-Dihydropalmyrolide A], the “fold more potent than the other analogues tested” value in data set [3] is 3–9 fold.
